In patent publication US20060241297A1, “Pyridinylamino-pyrimidine derivatives as protein kinase inhibitors” (Cyclacel Limited, priority 2003, published 2006):
Like-named read-outs stand apart in the source and are kept apart here.

Tests used:
[1] = tested on: transformed human cell lines (A549, HT29, Saos-2); test: 72-h MTT cytotoxicity assay, average over cell lines; format: cell-based
Protocol: (§1) The compounds from the examples above were subjected to a standard cellular proliferation assay using human tumour cell lines obtained from the ATCC (American Type Culture Collection, 10801 University Boulevard, Manessas, Va. 20110-2209, USA). Standard 72-h MTT (thiazolyl blue; 3-[4,5-dimethylthiazol-2-yl]-2,5-diphenyltetrazolium bromide) assays were performed. In short: cells were seeded into 96-well plates according to doubling time and incubated overnight at 37° C. Test compounds were made up in DMSO and a 1/3 dilution series prepared in 100 μL cell media, added to cells (in triplicates) and incubated for 72 ho at 37° C. MTT was made up as a stock of 5 mg/mL in cell media and filter-sterilised. Media was removed from cells followed by a wash with 200 μL PBS. MTT solution was then added at 20 μL per well and incubated in the dark at 37° C. for 4 h. MTT solution was removed and cells again washed with 200 μL PBS. MTT dye was solubilised with 200 μL per well of DMSO with agitation. Absorbance was read at 540 nm and data analysed using curve-fitting software (GraphPad Prism version 3.00 for Windows, GraphPad Software, San Diego Calif. USA) to determine IC50 values (concentration of test compound which inhibits cell growth by 50%). Various modifications and variations of the described aspects of the invention will be apparent to those skilled in the art without departing from the scope and spirit of the invention. Although the invention has been described in connection with specific preferred embodiments, it should be understood that the invention as claimed should not be unduly limited to such specific embodiments. Indeed, various modifications of the described modes of carrying out the invention which are obvious to those skilled in the relevant fields are intended to be within the scope of the following claims.

CDK2/cyclin E = CDK2/cyclin E (Homo sapiens, UniProt P24941); test: Kinase assay, incorporation of radioactive phosphate from ATP; format: biochemical; conditions: 100 μM ATP, 30° C.; read-out: Kinase inhibition Ki CDK2/cyclin E
Protocol: (§2) The compounds from the examples above were investigated for their ability to inhibit the enzymatic activity of various protein kinases. This was achieved by measurement of incorporation of radioactive phosphate from ATP into appropriate polypeptide substrates. Recombinant protein kinases and kinase complexes were produced or obtained commercially. Assays were performed using 96-well plates and appropriate assay buffers (typically 25 mM β-glycerophosphate, 20 mM MOPS, 5 mM EGTA, 1 mM DTT, 1 mM […], pH 7.4), into which were added 2-4 μg of active enzyme with appropriate substrates. The reactions were initiated by addition of Mg/ATP mix (15 mM MgCl2+100 μM ATP with 30-50 kBq per well of [γ-^32P]-ATP) and mixtures incubated as required at 30° C. Reactions were stopped on ice, followed by filtration through p81 filterplates or GF/C filterplates (Whatman Polyfiltronics, Kent, UK). After washing 3 times with 75 mM aq orthophosphoric acid, plates were dried, scintillant added and incorporated radioactivity measured in a scintillation counter (TopCount, Packard Instruments, Pangboume, Berks, UK). Compounds for kinase assay were made up as 10 mM stocks in DMSO and diluted into 10% DMSO in assay buffer. Data was analysed using curve-fitting software (GraphPad Prism version 3.00 for Windows, GraphPad Software, San Diego Calif. USA) to determine IC50 values (concentration of test compound which inhibits kinase activity by 50%.).

CDK9/cyclin T1 = CDK9/cyclin T1 (Homo sapiens, UniProt P50750); test: as above; format: biochemical; conditions: 100 μM ATP, 30° C.; read-out: Kinase inhibition Ki CDK9/cyclin T1
CDK9/cyclin T1, sequence (P50750 whole entry): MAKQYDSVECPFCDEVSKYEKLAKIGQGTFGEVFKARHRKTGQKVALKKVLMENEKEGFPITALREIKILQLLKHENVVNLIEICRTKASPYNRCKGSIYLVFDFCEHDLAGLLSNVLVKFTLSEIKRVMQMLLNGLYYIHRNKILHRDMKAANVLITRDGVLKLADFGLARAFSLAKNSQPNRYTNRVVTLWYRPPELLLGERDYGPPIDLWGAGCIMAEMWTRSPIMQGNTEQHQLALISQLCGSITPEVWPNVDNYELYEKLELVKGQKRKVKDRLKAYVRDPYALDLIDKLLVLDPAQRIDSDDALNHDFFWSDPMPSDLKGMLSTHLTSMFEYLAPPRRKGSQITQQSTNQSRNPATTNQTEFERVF
CDK9/cyclin T1, sequence (O60563 whole entry partner): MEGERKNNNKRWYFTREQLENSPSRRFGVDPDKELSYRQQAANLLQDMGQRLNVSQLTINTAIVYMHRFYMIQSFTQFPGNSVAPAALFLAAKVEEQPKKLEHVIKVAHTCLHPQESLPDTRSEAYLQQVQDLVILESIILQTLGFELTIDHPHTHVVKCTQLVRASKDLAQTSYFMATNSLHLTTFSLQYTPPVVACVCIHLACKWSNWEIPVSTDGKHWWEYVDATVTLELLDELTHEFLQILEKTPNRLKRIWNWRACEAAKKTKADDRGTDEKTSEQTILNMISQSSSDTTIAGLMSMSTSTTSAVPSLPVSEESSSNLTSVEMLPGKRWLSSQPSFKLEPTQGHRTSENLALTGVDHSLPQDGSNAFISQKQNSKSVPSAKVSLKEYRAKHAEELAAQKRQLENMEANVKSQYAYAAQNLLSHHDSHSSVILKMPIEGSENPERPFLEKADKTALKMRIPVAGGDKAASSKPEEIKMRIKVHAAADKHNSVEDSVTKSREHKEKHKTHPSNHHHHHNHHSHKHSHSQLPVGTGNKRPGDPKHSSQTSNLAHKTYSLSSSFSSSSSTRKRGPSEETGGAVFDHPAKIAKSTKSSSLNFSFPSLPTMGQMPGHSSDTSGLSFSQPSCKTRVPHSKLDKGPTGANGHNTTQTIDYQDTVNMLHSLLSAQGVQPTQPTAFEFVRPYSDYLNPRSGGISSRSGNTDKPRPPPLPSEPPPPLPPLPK
Protocol: as §2

CDK4/cyclin D1 = CDK4/cyclin D1 (Homo sapiens, UniProt P11802); test: as above; format: biochemical; conditions: 100 μM ATP, 30° C.; read-out: Kinase inhibition Ki CDK4/cyclin D1
CDK4/cyclin D1, sequence (P11802 whole entry): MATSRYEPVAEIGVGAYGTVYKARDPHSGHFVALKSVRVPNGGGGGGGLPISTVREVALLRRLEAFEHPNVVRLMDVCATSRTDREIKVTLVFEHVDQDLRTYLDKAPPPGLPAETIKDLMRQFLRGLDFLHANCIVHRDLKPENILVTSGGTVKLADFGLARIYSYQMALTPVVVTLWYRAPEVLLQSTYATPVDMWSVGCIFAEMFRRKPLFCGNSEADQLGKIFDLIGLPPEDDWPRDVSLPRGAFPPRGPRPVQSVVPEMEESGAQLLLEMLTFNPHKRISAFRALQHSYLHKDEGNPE
CDK4/cyclin D1, sequence (P24385 whole entry partner): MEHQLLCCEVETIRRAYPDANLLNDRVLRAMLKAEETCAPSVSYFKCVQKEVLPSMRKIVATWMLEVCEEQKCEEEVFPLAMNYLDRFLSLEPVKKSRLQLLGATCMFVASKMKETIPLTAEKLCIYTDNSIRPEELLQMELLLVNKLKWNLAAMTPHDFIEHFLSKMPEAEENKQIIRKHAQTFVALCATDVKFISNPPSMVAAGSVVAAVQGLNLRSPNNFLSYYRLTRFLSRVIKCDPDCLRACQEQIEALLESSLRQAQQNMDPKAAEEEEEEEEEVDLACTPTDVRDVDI
Protocol: as §2

A549 = test: 72-h MTT cytotoxicity assay; format: cell-based; conditions: Homo sapiens
Protocol: as §1

Saos-2 = test: 72-h MTT cytotoxicity assay; format: cell-based; conditions: Homo sapiens
Protocol: as §1

HT29 = test: 72-h MTT cytotoxicity assay; format: cell-based; conditions: Homo sapiens, HT-29
Protocol: as §1

GSK3β = GSK3β (Homo sapiens, UniProt P49841); test: Kinase assay, incorporation of radioactive phosphate from ATP; format: biochemical; conditions: 100 μM ATP, 30° C.; read-out: Kinase inhibition Ki GSK3β
GSK3β, sequence (P49841 whole entry): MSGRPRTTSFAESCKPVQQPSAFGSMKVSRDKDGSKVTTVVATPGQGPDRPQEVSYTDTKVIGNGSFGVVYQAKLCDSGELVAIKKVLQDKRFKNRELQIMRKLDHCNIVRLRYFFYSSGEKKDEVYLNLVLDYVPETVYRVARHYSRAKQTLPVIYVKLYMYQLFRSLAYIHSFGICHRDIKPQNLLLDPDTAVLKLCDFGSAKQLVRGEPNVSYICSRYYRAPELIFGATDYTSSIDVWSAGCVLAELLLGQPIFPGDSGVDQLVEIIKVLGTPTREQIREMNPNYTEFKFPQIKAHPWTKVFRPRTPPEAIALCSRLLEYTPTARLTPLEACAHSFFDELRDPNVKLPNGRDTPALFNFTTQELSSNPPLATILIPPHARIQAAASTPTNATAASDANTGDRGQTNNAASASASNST
Protocol: as §2

CDK1/cyclin B = CDK1/cyclin B (Homo sapiens, UniProt P06493); test: as above; format: biochemical; conditions: 100 μM ATP, 30° C.; read-out: Kinase inhibition Ki CDK1/cyclin B
CDK1/cyclin B, sequence (P06493 whole entry): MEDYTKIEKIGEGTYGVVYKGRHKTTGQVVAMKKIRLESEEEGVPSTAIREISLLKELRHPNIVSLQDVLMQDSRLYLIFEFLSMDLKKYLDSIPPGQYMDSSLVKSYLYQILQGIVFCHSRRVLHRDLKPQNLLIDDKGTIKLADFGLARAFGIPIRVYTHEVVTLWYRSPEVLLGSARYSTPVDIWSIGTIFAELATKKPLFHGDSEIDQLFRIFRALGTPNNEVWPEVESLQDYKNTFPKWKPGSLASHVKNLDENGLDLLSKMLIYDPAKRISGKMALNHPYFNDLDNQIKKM
CDK1/cyclin B, sequence (P14635 whole entry partner): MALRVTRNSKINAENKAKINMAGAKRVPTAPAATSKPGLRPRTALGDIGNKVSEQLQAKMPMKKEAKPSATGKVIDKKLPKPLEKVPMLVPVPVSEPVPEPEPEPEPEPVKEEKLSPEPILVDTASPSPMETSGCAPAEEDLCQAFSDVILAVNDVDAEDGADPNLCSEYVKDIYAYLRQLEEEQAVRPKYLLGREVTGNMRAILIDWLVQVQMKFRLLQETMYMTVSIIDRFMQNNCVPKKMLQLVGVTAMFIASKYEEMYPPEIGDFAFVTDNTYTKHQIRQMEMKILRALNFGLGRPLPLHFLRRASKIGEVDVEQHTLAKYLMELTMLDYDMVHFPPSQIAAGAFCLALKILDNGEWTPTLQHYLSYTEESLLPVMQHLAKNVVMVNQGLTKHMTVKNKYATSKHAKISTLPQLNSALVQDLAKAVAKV
Protocol: as §2

CDK2/cyclin A = CDK2/cyclin A (Homo sapiens, UniProt P24941); test: as above; format: biochemical; conditions: 100 μM ATP, 30° C.; read-out: Kinase inhibition Ki CDK2/cyclin A
Protocol: as §2

CDK7/cyclin H = CDK7/cyclin H (Homo sapiens, UniProt P50613); test: as above; format: biochemical; conditions: 100 μM ATP, 30° C.; read-out: Kinase inhibition Ki CDK7/cyclin H
CDK7/cyclin H, sequence (P50613 whole entry): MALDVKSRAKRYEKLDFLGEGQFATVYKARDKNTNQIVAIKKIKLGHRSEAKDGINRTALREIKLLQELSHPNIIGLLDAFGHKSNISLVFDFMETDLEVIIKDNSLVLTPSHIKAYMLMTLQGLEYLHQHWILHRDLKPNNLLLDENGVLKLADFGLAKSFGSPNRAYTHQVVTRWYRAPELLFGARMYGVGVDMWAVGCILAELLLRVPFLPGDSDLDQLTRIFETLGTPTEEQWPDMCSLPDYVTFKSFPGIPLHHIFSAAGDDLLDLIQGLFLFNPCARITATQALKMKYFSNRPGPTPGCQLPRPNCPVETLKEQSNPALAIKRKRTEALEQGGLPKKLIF
CDK7/cyclin H, sequence (P51946 whole entry partner): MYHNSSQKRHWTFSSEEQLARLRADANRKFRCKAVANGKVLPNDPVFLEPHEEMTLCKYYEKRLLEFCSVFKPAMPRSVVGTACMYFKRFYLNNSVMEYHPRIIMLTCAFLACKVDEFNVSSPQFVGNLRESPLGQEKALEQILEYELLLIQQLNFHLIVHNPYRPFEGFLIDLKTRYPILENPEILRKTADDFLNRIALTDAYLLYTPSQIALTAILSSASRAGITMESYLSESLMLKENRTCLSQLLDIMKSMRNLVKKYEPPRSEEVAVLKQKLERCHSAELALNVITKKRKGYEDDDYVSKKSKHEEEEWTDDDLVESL
Protocol: as §2

[2] = average of A549, HT29, Saos-2, read-out: 72-h MTT IC50 Average
[3] = in vitro, read-out: IC50 value (average) against one or more transformed human cell lines, 72-h MTT cytotoxicity assay

Compound | IC50 [1, 2] | IC50 [1, 3] | Ki (CDK2/cyclin E) | Ki (CDK9/cyclin T1) | Ki (CDK4/cyclin D1) | IC50 (A549) | IC50 (Saos-2) | IC50 (HT29) | Ki (GSK3β) | Ki (CDK1/cyclin B) | Ki (CDK2/cyclin A) | Ki (CDK7/cyclin H)
Cc1nc(C)c(-c2ccnc(Nc3cccnc3)n2)s1 [Compound 1, [4-(2,4-Dimethyl-thiazol-5-yl)-pyrimidin-2-yl]-pyridin-3-yl-amine] | 3600 ± 300 nM | < 10000 nM | 110 nM | 80 nM | 340 nM | 3200 nM | 3700 nM | 3700 nM | – | – | – | –
Cc1c(-c2ccnc(Nc3ccc(Cl)nc3)n2)sc(=O)n1C [Compound 4, 5-[2-(6-chloro-pyridin-3-ylamino)-pyrimidin-4-yl]-3,4-dimethyl-3H-thiazol-2-one] | 1100 ± 600 nM | – | 140 nM | 21 nM | – | 1100 nM | 1700 nM | 600 nM | 11 nM | 1500 nM | – | –
COc1ccc(Nc2nccc(-c3sc(N)nc3C)n2)cn1 [Compound 5, [4-(2-Amino-4-methyl-thiazol-5-yl)-pyrimidin-2-yl]-(6-methoxy-pyridin-3-yl)-amine] | 3500 ± 400 nM | < 10000 nM | 70 nM | 5 nM | 60 nM | 3500 nM | 3100 nM | 4000 nM | 350 nM | 5500 nM | 950 nM | 710 nM
COc1ccc(Nc2nccc(-c3sc(C)nc3C)n2)cn1 [Compound 6, [4-(2,4-Dimethyl-thiazol-5-yl)-pyrimidin-2-yl]-(6-methoxy-pyridin-3-yl)-amine] | 4600 ± 3100 nM | < 10000 nM | 130 nM | 280 nM | 460 nM | 5100 nM | 7500 nM | 1400 nM | – | 2800 nM | 1400 nM | 1400 nM
Cc1nc(N)sc1-c1ccnc(Nc2ccc(Cl)nc2)n1 [Compound 7, [4-(2-Amino-4-methyl-thiazol-5-yl)-pyrimidin-2-yl]-(6-chloro-pyridin-3-yl)-amine] | 3200 ± 100 nM | < 10000 nM | 50 nM | 5 nM | 70 nM | 3300 nM | 3100 nM | 3400 nM | 160 nM | 2000 nM | 860 nM | 1500 nM
CNc1nc(C)c(-c2ccnc(Nc3ccc(OC)nc3)n2)s1 [Compound 8, (6-Methoxy-pyridin-3-yl)-[4-(4-methyl-2-methylamino-thiazol-5-yl)-pyrimidin-2-yl]-amine] | 1700 ± 300 nM | – | 30 nM | 6 nM | 40 nM | 1400 nM | 1700 nM | 2000 nM | 50 nM | 840 nM | 270 nM | 430 nM
CCn1c(C)c(-c2ccnc(Nc3ccc(OC)nc3)n2)sc1=O [Compound 11, 3-Ethyl-5-[2-(6-methoxy-pyridin-3-ylamino)-pyrimidin-4-yl]-4-methyl-3H-thiazol-2-one] | – | – | 110 nM | 27 nM | 1200 nM | – | – | – | 13 nM | 3400 nM | 370 nM | 230 nM
COCCNc1nc(C)c(-c2ccnc(Nc3ccc(OC)nc3)n2)s1 [Compound 13, {4-[2-(2-Methoxy-ethylamino)-4-methyl-thiazol-5-yl]-pyrimidin-2-yl}-(6-methoxy-pyridin-3-yl)-amine] | – | – | 250 nM | 120 nM | 250 nM | – | – | – | 100 nM | 2300 nM | 950 nM | 650 nM
CNc1nc(C)c(-c2ccnc(Nc3ccc(N4CCN(C)CC4)nc3)n2)s1 [Compound 15, [4-(4-Methyl-2-methylamino-thiazol-5-yl)-pyrimidin-2-yl]-[6-(4-methyl-piperazin-1-yl)-pyridin-3-yl]-amine] | – | – | – | 80 nM | 80 nM | – | – | – | 2900 nM | – | 1500 nM | 280 nM
